According to US20200223889A1, “Bicyclic Compounds Capable of Binding to Melanocortin 4 Receptor” (Novo Nordisk A/S, priority 2017, published 2020):
Where two headings read alike, the source gives them in different places. Starred links: 1 amine or outer side, 2 acyl side, 3 side chain; linkers in the order of their positions; H or OH if unused. Positions of bridges follow the written chain, without caps; N, C: chain ends. Non-standard residues stand in square brackets, D forms with d. Residues, ends and D or L forms follow the SMILES beside them. Hyp = O=C(O)[C@@H]1C[C@@H](O)CN1; Cit = NC(=O)NCCC[C@H](N)C(=O)O; d(hCys) = N[C@H](CCS)C(=O)O; Api = NC1(C(=O)O)CCNCC1; X1 = C(CN[*:2])CS[*:1]; Aib = CC(C)(N)C(=O)O; Sar = CNCC(=O)O

Target: T1, human MC4R (Homo sapiens, UniProt P32245)
T1 construct: expressed in transfected cells
Experiment: Functional cAMP assay (CisBio HTRF) in BHK cells expressing human MC4R
Format: cell-based
Conditions: for MC1R/MC4R cAMP EC50 ratio: MC1R cAMP EC50 divided by MC4R cAMP EC50
Description: In order to assess the potency of the compounds on human MC1R and human MC4R cAMP signalling was measured.
cAMP induction was measured by c-AMPdynamic2 assay, HTRF 62AM4PEC system from CisBio for the human MC1R and human MC4R according to the protocol provided by the vendor. BHK cells expressing the human MC1 or MC4 receptor were generated by stable transfection with expression vectors encoding the cDNA of either MC1R or MC4R.
In details; 25 μl compound—or standard solution were added in the respective wells. Compound was reconstituted in buffer (DMEM w/o phenol red, 10 mM
Hepes, lx Glutamine, 0.1% OV-albumin1, 1 mM IBMX) and serially diluted starting at 2 μM, 10-fold seven times. Dilutions were carried out in the same aforementioned buffer to the desired working concentration ranges (2× higher than the final concentration). 25 μl cell solution was then added and allowed to incubate for 30 min while lightly shaking, at 25° C. […] The provided components for the assay were reconstituted according to the CisBio assay protocol “3.1 supplied reagents and preparation procedure” in MilliQ purification system H2O and diluted 1:20 in lysis buffer. 25 μl cAMP-d2 and 25 μl Cryptate conjugate were added to all wells.
Plates were centrifuged at 1500 rpm for 30 sec and incubated for 1 h, lightly shaking, at 25° C. in a hotel stacker. The plates were read on Mithras LB 940 provided by Berthold Technologies The data were analysed by non-linear regression analysis of binding curves, using the Windows™ program GraphPad™ Prism (GraphPad Software, USA).
The latter is used when no full curve can be obtained in the concentration ranges indicated above.

[1] = BHK cells expressing human MC4R, '>' = highest dose used with no response, read-out: MC4R cAMP EC50

T1 sequence (P32245 whole entry): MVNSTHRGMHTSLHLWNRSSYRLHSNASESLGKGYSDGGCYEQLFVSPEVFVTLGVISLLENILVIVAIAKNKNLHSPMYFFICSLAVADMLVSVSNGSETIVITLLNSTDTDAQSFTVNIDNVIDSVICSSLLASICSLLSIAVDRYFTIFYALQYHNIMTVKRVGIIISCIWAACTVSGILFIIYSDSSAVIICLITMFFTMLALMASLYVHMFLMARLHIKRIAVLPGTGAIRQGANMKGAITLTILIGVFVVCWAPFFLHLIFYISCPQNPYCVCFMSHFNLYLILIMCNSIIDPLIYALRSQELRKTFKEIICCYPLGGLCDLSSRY

SMILES | MC1R/MC4R cAMP EC50 ratio | EC50 [1] | EC50
N=C(N)NCCC[C@@H]1NC(=O)[C@@H](Cc2ccccc2)NC(=O)[C@H](Cc2c[nH]cn2)NC(=O)[C@@H]2CSSC[C@H](NC(=O)[C@H](CCC(=O)O)NC(=O)[C@H](Cc3c[nH]c4ccccc34)NC1=O)C(=O)N[C@@H](Cc1c[nH]cn1)C(=O)N[C@H](Cc1ccccc1)C(=O)N[C@@H](CCCNC(=N)N)C(=O)N[C@@H](Cc1c[nH]c3ccccc13)C(=O)N[C@@H](CCC(=O)O)C(=O)N2 [Chem. 1, c[c[Cys-His-D-Phe-Arg-Trp-Glu-Cys]- His-D-Phe-Arg-Trp-Glu]] (cyclo(CH[dF]RWECH[dF]RWE); disulfide 1-7) | 13 |  | 
CC(=O)N[C@@H](Cc1c[nH]cn1)C(=O)N[C@H](Cc1ccccc1)C(=O)N[C@@H](CCCNC(=N)N)C(=O)N[C@@H](Cc1c[nH]c2ccccc12)C(=O)NCC(=O)N[C@@H]1CCSSCCCNC(=O)CNC(=O)[C@H](Cc2c[nH]c3ccccc23)NC(=O)[C@H](CCCNC(=N)N)NC(=O)[C@@H](Cc2ccccc2)NC(=O)[C@H](Cc2c[nH]cn2)NC1=O [Chem. 4, c[c[Cys-His-D-Phe-Arg-Trp-Gly-Cys]- His-D-Phe-Arg-Trp-Gly]] (Ac-H[dF]RWG[d(hCys)]H[dF]RWG; linker 6-C via X1) | 7 | 0.09 nM | 
CC(=O)N[C@@H](Cc1c[nH]cn1)C(=O)N[C@H](Cc1ccccc1)C(=O)N[C@@H](CCCNC(=N)N)C(=O)N[C@@H](Cc1c[nH]c2ccccc12)C(=O)N[C@@H](C)C(=O)N[C@@H]1CCSSCCCNC(=O)[C@H](C)NC(=O)[C@H](Cc2c[nH]c3ccccc23)NC(=O)[C@H](CCCNC(=N)N)NC(=O)[C@@H](Cc2ccccc2)NC(=O)[C@H](Cc2c[nH]cn2)NC1=O [Chem. 5, c[c[Cys-His-D-Phe-Arg-Trp-Ala-Cys]- His-D-Phe-Arg-Trp-Ala]] (Ac-H[dF]RWA[d(hCys)]H[dF]RWA; linker 6-C via X1) | 31 | 0.21 nM | 
CC1(C)NC(=O)[C@@H]2CSSC[C@H](NC(=O)[C@H](Cc3c[nH]c4ccccc34)NC(=O)[C@H](CCCNC(=N)N)NC(=O)[C@@H](Cc3ccccc3)NC(=O)[C@H](Cc3c[nH]cn3)NC1=O)C(=O)NC(C)(C)C(=O)N[C@@H](Cc1c[nH]cn1)C(=O)N[C@H](Cc1ccccc1)C(=O)N[C@@H](CCCNC(=N)N)C(=O)N[C@@H](Cc1c[nH]c3ccccc13)C(=O)N2 [Chem. 9, c[c[Cys-Aib-His-D-Phe-Arg-Trp-Cys]- Aib-His-D-Phe-Arg-Trp]] (cyclo([Aib]H[dF]RWC[Aib]H[dF]RWC); disulfide 6-12) | 201 |  | 
C[C@@H]1NC(=O)[C@@H]2CSSC[C@H](NC(=O)[C@H](Cc3c[nH]c4ccccc34)NC(=O)[C@H](CCN)NC(=O)[C@@H](Cc3ccccc3)NC(=O)[C@H](Cc3c[nH]cn3)NC1=O)C(=O)N[C@@H](C)C(=O)N[C@@H](Cc1c[nH]cn1)C(=O)N[C@H](Cc1ccccc1)C(=O)N[C@@H](CCN)C(=O)N[C@@H](Cc1c[nH]c3ccccc13)C(=O)N2 [Chem. 17, c[c[Cys-Ala-His-D-Phe-Dab-Trp-Cys]- Ala-His-D-Phe-Dab-Trp]] | 288 |  | 
C[C@@H]1NC(=O)[C@@H]2CSSC[C@H](NC(=O)[C@H](Cc3c[nH]c4ccccc34)NC(=O)[C@H](Cc3c[nH]cn3)NC(=O)[C@@H](Cc3ccccc3)NC(=O)[C@H](Cc3c[nH]cn3)NC1=O)C(=O)N[C@@H](C)C(=O)N[C@@H](Cc1c[nH]cn1)C(=O)N[C@H](Cc1ccccc1)C(=O)N[C@@H](Cc1c[nH]cn1)C(=O)N[C@@H](Cc1c[nH]c3ccccc13)C(=O)N2 [Chem. 24, c[c[Cys-Ala-His-D-Phe-His-Trp-Cys]- Ala-His-D-Phe-His-Trp]] (cyclo(AH[dF]HWCAH[dF]HWC); disulfide 6-12) | 364 | 0.49 nM | 
CN1CC(=O)N[C@@H](Cc2c[nH]cn2)C(=O)N[C@H](Cc2ccccc2)C(=O)N[C@@H](CCCNC(=N)N)C(=O)N[C@@H](Cc2c[nH]c3ccccc23)C(=O)N[C@H]2CSSC[C@H](NC(=O)[C@H](Cc3c[nH]c4ccccc34)NC(=O)[C@H](CCCNC(=N)N)NC(=O)[C@@H](Cc3ccccc3)NC(=O)[C@H](Cc3c[nH]cn3)NC(=O)CN(C)C2=O)C1=O [Chem. 31, c[c[Cys-Sar-His-D-Phe-Arg-Trp-Cys]- Sar-His-D-Phe-Arg-Trp]] (cyclo(C[Sar]H[dF]RWC[Sar]H[dF]RW); disulfide 1-7) | 27 | 0.29 nM | 
N=C(N)NCCC[C@@H]1NC(=O)[C@@H](Cc2ccccc2)NC(=O)[C@H](Cc2c[nH]cn2)NC(=O)[C@@H]2C[C@@H](O)CN2C(=O)[C@@H]2CSSC[C@H](NC(=O)[C@H](Cc3c[nH]c4ccccc34)NC1=O)C(=O)N1C[C@H](O)C[C@H]1C(=O)N[C@@H](Cc1c[nH]cn1)C(=O)N[C@H](Cc1ccccc1)C(=O)N[C@@H](CCCNC(=N)N)C(=O)N[C@@H](Cc1c[nH]c3ccccc13)C(=O)N2 [Chem. 32, c[c[Cys-Hyp-His-D-Phe-Arg-Trp- Cys]-Hyp-His-D-Phe-Arg-Trp]] (cyclo(C[Hyp]H[dF]RWC[Hyp]H[dF]RW); disulfide 1-7) | 17 |  | 0.12 nM
C[C@@H]1NC(=O)[C@@H]2CSSC[C@H](NC(=O)[C@H](Cc3c[nH]c4ccccc34)NC(=O)[C@H](CCCNC(=N)N)N(C)C(=O)[C@@H](Cc3ccccc3)NC(=O)[C@H](Cc3c[nH]cn3)NC1=O)C(=O)N[C@@H](C)C(=O)N[C@@H](Cc1c[nH]cn1)C(=O)N[C@H](Cc1ccccc1)C(=O)N(C)[C@@H](CCCNC(=N)N)C(=O)N[C@@H](Cc1c[nH]c3ccccc13)C(=O)N2 [Chem. 37, c[c[Cys-Ala-His-D-Phe-N-MeArg-Trp- Cys]-Ala-His-D-Phe-N-MeArg-Trp]] | 8 |  | 
CC1(C)NC(=O)[C@@H]2CSSC[C@H](NC(=O)[C@H](Cc3c[nH]c4ccccc34)NC(=O)[C@H](CCCNC(=N)N)NC(=O)[C@@H](Cc3ccccc3)NC(=O)[C@@H]3CCCN3C1=O)C(=O)NC(C)(C)C(=O)N1CCC[C@H]1C(=O)N[C@H](Cc1ccccc1)C(=O)N[C@@H](CCCNC(=N)N)C(=O)N[C@@H](Cc1c[nH]c3ccccc13)C(=O)N2 [Chem. 39, c[c[Cys-Aib-Pro-D-Phe-Arg-Trp-Cys]- Aib-Pro-D-Phe-Arg-Trp]] (cyclo([Aib]P[dF]RWC[Aib]P[dF]RWC); disulfide 6-12) | 37 |  | 
O=C1N[C@H]2CSSC[C@H](NC(=O)[C@H](Cc3c[nH]c4ccccc34)NC(=O)[C@H](Cc3c[nH]cn3)NC(=O)[C@@H](Cc3ccccc3)NC(=O)[C@H](Cc3c[nH]cn3)NC(=O)C3(CCNCC3)NC2=O)C(=O)NC2(CCNCC2)C(=O)N[C@@H](Cc2c[nH]cn2)C(=O)N[C@H](Cc2ccccc2)C(=O)N[C@@H](Cc2c[nH]cn2)C(=O)N[C@H]1Cc1c[nH]c2ccccc12 [Chem. 50, c[c[Cys-ACP-His-D-Phe-His-Trp-Cys]- ACP-His-D-Phe-His-Trp]] (cyclo([Api]H[dF]HWC[Api]H[dF]HWC); disulfide 6-12) | 56 |  | 
N=C(N)NCCC[C@@H]1NC(=O)[C@@H](Cc2ccccc2)NC(=O)[C@H](Cc2c[nH]cn2)NC(=O)[C@H](CCC(=O)O)NC(=O)[C@@H]2CSSC[C@H](NC(=O)[C@H](Cc3c[nH]c4ccccc34)NC1=O)C(=O)N[C@@H](CCC(=O)O)C(=O)N[C@@H](Cc1c[nH]cn1)C(=O)N[C@H](Cc1ccccc1)C(=O)N[C@@H](CCCNC(=N)N)C(=O)N[C@@H](Cc1c[nH]c3ccccc13)C(=O)N2 [Chem. 51, c[c[Cys-Glu-His-D-Phe-Arg-Trp-Cys]- Glu-His-D-Phe-Arg-Trp]] (cyclo(CEH[dF]RWCEH[dF]RW); disulfide 1-7) | 13 | 0.2 nM | 
NCCCC[C@@H]1NC(=O)[C@@H]2CSSC[C@H](NC(=O)[C@H](Cc3c[nH]c4ccccc34)NC(=O)[C@H](CCCNC(N)=O)NC(=O)[C@@H](Cc3ccccc3)NC(=O)[C@H](Cc3c[nH]cn3)NC1=O)C(=O)N[C@@H](CCCCN)C(=O)N[C@@H](Cc1c[nH]cn1)C(=O)N[C@H](Cc1ccccc1)C(=O)N[C@@H](CCCNC(N)=O)C(=O)N[C@@H](Cc1c[nH]c3ccccc13)C(=O)N2 [Chem. 55, c[c[Cys-Lys-His-D-Phe-Cit-Trp-Cys]- Lys-His-D-Phe-Cit-Trp]] (cyclo(CKH[dF][Cit]WCKH[dF][Cit]W); disulfide 1-7) | 41 | 0.1 nM | 
N=C(N)NCCC[C@@H]1NC(=O)[C@H](Cc2c[nH]c3ccccc23)NC(=O)[C@H](CCCNC(=N)N)NC(=O)[C@@H](Cc2ccccc2)NC(=O)[C@H](Cc2c[nH]cn2)NC(=O)[C@@H]2CSSC[C@H](NC1=O)C(=O)N[C@@H](Cc1c[nH]cn1)C(=O)N[C@H](Cc1ccccc1)C(=O)N[C@@H](CCCNC(=N)N)C(=O)N[C@@H](Cc1c[nH]c3ccccc13)C(=O)N[C@@H](CCCNC(=N)N)C(=O)N2 [Chem. 68, c[c[Cys-His-D-Phe-Arg-Trp-Arg-Cys]- His-D-Phe-Arg-Trp-Arg]] (cyclo(CH[dF]RWRCH[dF]RWR); disulfide 1-7) | 1 |  | 
